Peptide text beside a SMILES is read from it. * marks the point of attachment. Cbz = O=C(OCc1ccccc1)*; CH2F = FC*

One assay concerns the target T1, caspase-activated CAD (Homo sapiens, UniProt O76075).
T1 construct: endogenous in cells; host or cells: HeLa229-CTRL3 cells (LentiCRISPRV2_puro with non-targeted gRNA)
T1 sequence (O76075 1-338): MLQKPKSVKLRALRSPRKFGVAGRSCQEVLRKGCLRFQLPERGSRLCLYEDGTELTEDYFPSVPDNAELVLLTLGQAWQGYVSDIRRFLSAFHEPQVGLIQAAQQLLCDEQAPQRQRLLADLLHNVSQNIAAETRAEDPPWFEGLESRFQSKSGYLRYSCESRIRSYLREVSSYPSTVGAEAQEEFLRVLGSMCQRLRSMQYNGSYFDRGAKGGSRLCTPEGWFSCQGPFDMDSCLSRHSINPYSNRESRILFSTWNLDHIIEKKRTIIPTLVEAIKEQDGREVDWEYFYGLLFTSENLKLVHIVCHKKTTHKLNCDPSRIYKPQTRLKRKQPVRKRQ
The assay can be described thus: Assay B: Inhibition of caspase-activated CAD (ABT-737 plus S63845, γH2AX). Type of assay: cell-based. The conditions noted are these: HeLa229-CTRL3 cells, compound pre-treatment 1 hour, ABT-737 50 nM plus S63845 250 nM 2.5 hours. The protocol: FIG. 12 Activity of compounds against caspase-activated CAD A, HeLa229-CTRL3 cells (transduced with a LentiCRISPRV2_puro virus encoding a non-targeted gRNA) or Hela229 cells transduced with a CAD-targeted LentiCrisprV2 virus (resulting in CAD-deficient cells (CAD KO)) were seeded as described in FIG. 11 and stimulated with […] ABT-737 [50 nM] plus S63845 [250 nM] for 2.5 hours the next day. Subsequent analysis of the cells was performed as described in FIG. 11.
FIG. 12B, HeLa229-CTRL3 cells were seeded as in A and pre-treated (or not) with the indicated compounds and concentrations (Comp) for 1 hour, followed by treatment with ABT-737 plus […] for 2.5 hours. Proteins were detected as described in FIG. 11.
While in the screening we activated CAD with auxin-induced degradation of its inhibitor, CAD is physiologically activated by caspases. […] Test compounds were added 1 h previously. The activity of CAD was measured by the DDR as above (γH2AX). […] The compounds that will be used to inhibit CAD are shown in boxes. Such preferred compounds are: CBN16; CBN17; CBN62; CBN65; CBN66; CBN68; MB4; CD9; CD22 and MB26.

The target of a further assay is T2, CAD (Homo sapiens, UniProt O76075).
T2 construct: endogenous in cells; host or cells: HeLa229-Tir1-iCAD-mAID-GFP cells
T2 sequence (O76075 1-338): T1 sequence (O76075 1-338)
The assay can be described thus: Assay A: Inhibition of the CAD-dependent DNA-damage response (DDR), γH2AX Western blot. Type of assay: cell-based. As to conditions: HeLa229-Tir1-iCAD-mAID-GFP cells, compound 10 μM pre-incubated 1 hour, auxin 5 μM 4 hours. The protocol:
Cells were seeded, pre-incubated with the individual compounds and treated with auxin. The DDR (a consequence of CAD-activity) was measured by Western blotting for the marker γH2AX. […] Such preferred compounds are: MB4, MB26; MB33; MB37; CBN16; CBN17; CBN40; CBN62; CBN65; CBN66; CBN68; CD9 and CD22.
FIG. 11 Confirmation of CAD-inhibition: auxin-dependent DDR. HeLa229-Tir1-iCAD-mAID-GFP cells were seeded on a 48-well plate (50,000 cells/well). 24 hours later, cells were pre-incubated (or not) with the indicated compounds (Comp, 10 μM) for 1 hour, followed by auxin treatment [5 μM] for 4 hours. Cells were lysed in Laemmli buffer and lysates were loaded onto SDS-PAGE followed by Western blotting against the indicated proteins. The DNA damage marker γH2AX was used as an indicator of CAD activity. The two left lanes of each gel are negative and positive controls (without and with auxin but without compound; instead, DMSO was used as solvent control). Compounds are indicated at the top.
For orientation: In western blotting, separated proteins are transferred to a membrane and probed.

Another assay deals with HeLa cells. Put plainly: Chromosomal missegregation (CIN) and micronuclei in cancer cells. Type of assay: cell-based, human. As to conditions: cells incubated for one day with caspase-inhibitor. An excerpt:
A, the various pictures of chromosomal missegregation/misalignment are shown as examples (left) and enumerated in HeLa cells (cervical carcinoma line; ctrl., control; CAD, lacking CAD; STING, lacking STING; STING is not relevant to this invention).
C, missegregation in HeLa cells with inhibition in the mitochondrial apoptosis apparatus. Symbols as in A. zVAD-fmk is a small molecule pan-caspase-inhibitor. Apaf-1 is an adapter protein of caspase-9 that is required for caspase-activation upon release of cytochrome c from mitochondria. Both Bax and Bak can directly release cytochrome c, and the presence of at least one of them is required for mitochondrial apoptosis. Bcl-XL is a mitochondrial protein that blocks the activation and activity of Bax and Bak and thereby inhibits apoptosis. […]
Metastasis is linked in the literature to chromosomal instability (CIN), most likely because DNA-ligands are generated that stimulate the cells. […] This is clear because cancer cells modified to lack CAD or components of the (CAD-activating) mitochondrial apoptosis apparatus, or where apoptosis signaling was blocked using a chemical caspase inhibitor (zVAD-fmk), all show reduced CIN (measured as chromosomal missegregation, for instance as chromatin-bridges in dividing cells) and numbers of MN (FIG. 1). […]

The subject of the next assay is cancer cells. Put plainly: Aggressive cancer growth in vitro (migration, invasion through a basement membrane, colony formation on soft agar). Type of assay: cell-based. As to conditions: caspase-inhibition by the pan-caspase-inhibitor. An excerpt: A, migratory activity of cells with or without CAD (scratch assay). Percentages of the area closed upon scratch are given. In this assay, a monolayer of cells is mechanically scratched, and the cells migrate back to fill the gap. The speed with which they migrate is a measure of their migratory capacity.
B-D invasion through a basement membrane (number of cells are given that had invaded).
E, colony formation in soft agar (number of colonies). The invasion assay uses a basement membrane in a culture dish. The cells are seeded on top of the membrane, and after a predetermined time (here: 24 h), the number of cells at the bottom of the membrane is determined. This is a measure of the capacity of the cells to invade tissue. Colony formation measures a capacity also termed ‘anchorage-independent growth’. It is a particular capacity of metastatic cells to be able to grow to colonies without support from other cells of solid support (as in a plastic dish). Individual cells are seeded in soft agar to immobilize them and to test whether the single cells can grow and form colonies, a feature of metastatic cells. The number of colonies formed is then measured.
The cell lines and conditions were described in the legend to FIG. 1. zVAD, caspase-inhibitor zVAD-fmk. Ctrl., control cells; the other cell lines are labelled according to their genetic modification (gene deletion; Bcl-XL-overexpression). […]

For `Clc1ncnc2c1C(c1ccc(Br)cc1)c1c(Cl)ncnc1O2` [CD9, 9-(4-bromophenyl)-7,11-dichloro-2-oxa-4,6,12,14-tetrazatricyclo[8.4.0.0^3,8] tetradeca-1(10),3(8),4,6,11,13-hexaene], the “CAD-inhibitory activity against caspase-activated CAD (γH2AX)” value (“CAD-inhibitory activity … (γH2AX)” below) on caspase-activated CAD is given as “CAD-inhibitory activity”. Further, the “Inhibition of auxin-dependent DDR (γH2AX)” value (“Inhibition” for short) on CAD is recorded as “blocked the DDR”.
On to `O=C(Cn1ncc(Cl)c(Cl)c1=O)Nc1ccc(N2CCCC2)cc1` [CBN62, 2-(4,5-dichloro-6-oxopyridazin-1-yl)-N-(4-pyrrolidin-1-ylphenyl)acetamide], for which, at caspase-activated CAD, the “CAD-inhibitory activity … (γH2AX)” value is “CAD-inhibitory activity”. The “Inhibition” value at CAD is reported as “blocked the DDR”.
For `O=C1/C(=C/c2ccccn2)N2CCC1CC2` [CBN16, (2Z)-2-(pyridin-2-ylmethylidene)-1-azabicyclo[2.2.2]octan-3-one] the same measures were “CAD-inhibitory activity” and “blocked the DDR”.
In the case of `COc1cc(/C=C2\CCc3ccccc3C2=O)cc(OC)c1` [MB37, (2E)-2-[(3,5-dimethoxyphenyl)methylidene]-3,4-dihydronaphthalen-1-one], the “Inhibition” value on CAD is listed as “blocked the DDR”.
For `Cc1ccc(Sc2ccc([N+](=O)[O-])c3nonc23)cc1` [MB26, 4-(4-methylphenyl)sulfanyl-7-nitro-2,1,3-benzoxadiazole], the “CAD-inhibitory activity … (γH2AX)” value on caspase-activated CAD is given as “CAD-inhibitory activity”. Moreover, the “Inhibition” value on CAD is listed as “blocked the DDR”.
For `O=C1NC(=S)NC(=O)C1=Cc1c2ccccc2cc2ccccc12` [CBN65, 5-(anthracen-9-ylmethylidene)-2-sulfanylidene-1,3-diazinane-4,6-dione], the “CAD-inhibitory activity … (γH2AX)” value on caspase-activated CAD is “CAD-inhibitory activity”. Moreover, the “Inhibition” value at CAD is “blocked the DDR”.
For `O=[N+]([O-])c1ccc(C=Nc2cc(C(F)(F)F)ccc2N2CCOCC2)s1` [MB4, N-[2-morpholin-4-yl-5-(trifluoromethyl)phenyl]-1-(5-nitrothiophen-2-yl)methanimine] the same measures were “CAD-inhibitory activity” and “blocked the DDR”.
Consider `COC(=O)C[C@H](NC(=O)[C@H](C)NC(=O)[C@@H](NC(=O)OCc1ccccc1)C(C)C)C(=O)CF` [zVAD-fmk] (Cbz-Val-Ala-Asp(OMe)-CH2F), for which, in the assay with HeLa cells, the “CIN (chromosomal missegregation)” value was “reduced CIN” and the “numbers of MN (micronuclei)” value was “reduced”. For the same molecule, the “aggressive growth in vitro (migration, invasion, colony formation)” value in the assay on cancer cells is “less aggressive growth”.
In the case of `CC(=O)Nc1nc([N+](=O)[O-])n(-c2ccccc2)n1` [CBN17, N-(5-nitro-1-phenyl-1,2,4-triazol-3-yl)acetamide], the “CAD-inhibitory activity … (γH2AX)” value at caspase-activated CAD was “CAD-inhibitory activity”. In addition, the “Inhibition” value on CAD is recorded as “blocked the DDR”.
Regarding `COc1cc(/C=C2\CCc3ccccc3C2=O)cc(OC)c1OC` [MB33, (2E)-2-[(3,4,5-trimethoxyphenyl)methylidene]-3,4-dihydronaphthalen-1-one], the “Inhibition” value at CAD was “blocked the DDR”.
Take `O=c1c(Cl)c(Cl)cnn1-c1ccccc1` [CD22, 4,5-dichloro-2-phenylpyridazin-3-one]: the “CAD-inhibitory activity … (γH2AX)” value at caspase-activated CAD is reported as “CAD-inhibitory activity”. Further, on CAD, the “Inhibition” value is recorded as “blocked the DDR”.
In the case of `COc1cc(/C=C2/CCC/C(=C\c3ccc(O)c(OC)c3)C2=O)ccc1O` [CBN40, (2E,6Z)-2,6-bis[(4-hydroxy-3-methoxyphenyl)methylidene]cyclo-hexan-1-one], the “Inhibition” value on CAD was “blocked the DDR”.
Consider `Cc1nn(Cc2ccc(Cl)c(Cl)c2)c(C)c1NC(=O)CCCS(=O)(=O)c1nc(-c2cccs2)cc(C(F)(F)F)n1` [CBN68, N-[1-[(3,4-dichlorophenyl)methyl]-3,5-dimethylpyrazol-4-yl]-4-[4-thiophen-2-yl-6-(trifluoromethyl)pyrimidin-2-yl]sulfonylbutanamide], for which the “CAD-inhibitory activity … (γH2AX)” value on caspase-activated CAD is reported as “CAD-inhibitory activity”. Besides, on CAD, the “Inhibition” value was “blocked the DDR”.
